Laboratory results from patent US7811551B2, “Imaging agents” (GE Healthcare AS, priority 2003, dated 2010).
Starred links: 1 amine or outer side, 2 acyl side, 3 side chain; linkers in the order of their positions; H or OH if unused. Positions of bridges follow the written chain, without caps; N, C: chain ends. Residues, ends and D or L forms follow the SMILES beside them. *: point of attachment. X1 = O=C(COCC(=O)*)NCCOCCOCCOCCOCCOCCNC(=O)CSCCCF; CH2 = C([*:1])[*:2]

Target: T1, ανβ3 integrin receptor (Homo sapiens, UniProt P05106+P06756)
T1 construct: Using cell membrane preparations known to express the ανβ3 integrin receptor; endogenous in cells
Test: competitive binding with 125I-echistatin on cell membrane preparations
Settings: cell membrane preparations expressing ανβ3 integrin receptor; 125I-echistatin as radioligand; Ki calculated using Prism software
Procedure: Using cell membrane preparations known to express the ανβ3 integrin receptor, competitive binding studies were carried out using ^125I-echistatin and the F-labelled peptides as competing ligand. Binding curves were obtained and Ki's calculated using Prism™ software.

- Ki: 7 nM
Structure (SMILES): N=C(N)NCCC[C@@H]1NC(=O)[C@@H]2CSCSC[C@H](NC(=O)[C@H](CC(=O)O)NC(=O)CNC1=O)C(=O)N[C@@H](Cc1ccccc1)C(=O)N[C@H](C(N)=O)CSCC(=O)N[C@@H](CCCCNC(=O)COCC(=O)NCCOCCOCCOCCOCCOCCNC(=O)CSCCCF)C(=O)N2 [Example 1] ({CH2CO}-K(X1)CRGDCFC-NH2; linker 2-6 via CH2; thioether N-8)
